Data: patent publication US20230167406A1, “COMPOSITIONS AND METHODS OF PROMOTING MYELINATION” (The Children's Medical Center Corporation, priority 2020, published 2023)
“Also recorded” adds a separate entry of the source. Where a name gives a salt, the structure may show the parent alone.

Key:
[1] = system: proliferating OPCs in injured optic nerves; assay: In vivo compound screening for OPC differentiation (BrdU+/CC1+ cells) after optic nerve crush; design: species or system mouse; conditions: wild type C57BL/6 mice; for number of BrdU+ and CC1+ double positive cells (OPC differentiation) in injured optic nerves: compound once daily for 4 weeks from day 1 post optic nerve crush, BrdU daily days 4-10; for pro-differentiation effect compared with the other screened compounds: 4 week treatment after optic nerve crush
[2] = system: OPCs and their progenies in injured optic nerves; assay: OPC lineage tracing (CC1/Oligo1 staining of RTM+ cells) in PDGFRα-CreER/iRTM mice after optic nerve crush; assay type: in vivo, mouse
Source text: To trace the progenies of OPCs, a different reporter mouse line was utilized, namely PDGFRα-CreER (Kang et al., Neuron 68, 668-681, 2010) crossed with Rosa26-STOP-Tomato mice, or PDGFRα-CreER/iRTM mice (Arenkiel et al., 2011). Upon tamoxifen administration, Cre expression is induced in PDGFRα^+ OPCs, leading to RTM expression not only in these OPCs but also their differentiated progenies. To monitor their differentiation, two well-documented markers were used, namely CC1 and Oligo1. CC1 is a marker for all differentiated cells from OPCs. The translocation of Oligo1 from the nucleus to the cytoplasm has been implicated as a hallmark of late differentiation into myelinating oligodendrocytes. Therefore, with these immunohistochemistry assessments, these cells could be separated into three stages: un-differentiated OPCs (CC1^− and nuclear Oligo1), early differentiated OPCs (CC1+ and nuclear Oligo1) and mature oligodendrocytes (CC1^+ and cytoplasmic Oligo1) (FIG. 111).
Immediately prior to optic nerve crush, tamoxifen was injected into PDGFRα-CreER/iRTM mice in order to label pre-existing OPCs (Young et al., Neuron 77, 873-885, 2013). Then, the fate of labeled OPCs was examined by immunohistochemistry with anti-CC1 and anti-Oligo1 at 4 weeks after injury (FIG. 1I).
As the majority of OPC proliferation occurs in the first week after injury (FIG. 1), it was hypothesized that a delayed PLX3397 treatment at 2-4 weeks after injury could bypass their inhibition on proliferation, permitting assessment of its effects on OPC differentiation. To do this, a separate experiment was performed in which PLX3397 was administered from 2 to 4 weeks after injury in PDGFRα-CreER:iRTM mice as used in FIGS. 1G-1M, 3L.
For PDGFRα-CreER mice, Tamoxifen (100 mg/kg, p.o.) was administered for 5 days right before optic nerve crush. […] Pexidartinib (PLX 3397) was mixed in food chow at 290 mg/kg by LabDiet laboratory animal nutrition.

[3] = system: regenerated axons in injured optic nerves; assay: Electron microscopy of myelination of regenerated axons in injured optic nerves; assay type: in vivo, mouse; conditions: 4 weeks after injury; for regenerated axons that became myelinated: Montelukast dpi1-28 and/or PLX3397 dpi15-28
Experimental: To do this, AAVs expressing osteopontin/IGF1/CNTF were injected into the vitreous bodies of PDGFRα-CreER:iRTM mice to activate the intrinsic regenerative ability of RGCs and optic nerve injury was performed in 2 weeks. These mice were then treated with Montelukast (for 4 weeks from dpi1 to dpi28) and/or PLX3397 (for two weeks during dpi 15-28).
Mice were perfused with 4% paraformaldehyde with 2.5% glutaraldehyde in 0.1 M sodium cacodylate buffer, pH 7.2. Optic nerves were dissected and fixed in the same fixative solution overnight. Samples were then processed by the Harvard EM core based on the following procedure: nerves were rinsed in PBS, postfixed in 1% OsO4 in PBS for 1 h, dehydrated in a graded ethanol series, infiltrated with propylene oxide, and embedded in Epon. Semithin sections were stained with toluidine blue, and ultrathin sections were stained with lead citrate. Ultrathin sections were taken under JEOL 1200EX-80 kV electron microscope. The number of myelinated axons per nerve was analyzed in ultrathin sections at magnification 3,000× to 20,000×.

[4] = system: OPCs distal to the optic nerve injury; assay: TNFα inhibitor treatment after optic nerve injury (BrdU/CC1/Olig2 staining, lineage reporter mice); assay type: in vivo, mouse
Source text: The morphology is very distinct from other treatments, such as GPR17 antagonist treatment (FIG. 5E).

[5] = system: activated microglia in injured optic nerves; assay: Microglia depletion in injured optic nerves (CD68 immunoreactivity); assay type: in vivo, mouse; conditions: systemic application (food chow)
Source text: FIG. 3G comprises representative images of optic nerves, from adult mice 2 weeks after unilateral optic nerve crush injury and with or without PLX3397 treatment, stained with antibodies against CD68. Scale bar: 40 μm.
FIG. 3H is a graph quantifying the CD68 immunoreactivity signal. […] mice per group. Scale bar: 40 μm. *, **, *** p<0.05, 0.01, 0.001, respectively.
(§1) Thus, it appears that microglia activation is required for injury-induced OPC proliferation.
For PDGFRα-CreER mice, Tamoxifen (100 mg/kg, p.o.) was administered for 5 days right before optic nerve crush. For OPC proliferation assays, BrdU (100 mg/kg, i.p.) was injected at 3 hours before sample collection. […]
(§2) Cryosections (12-μm thick) were permeabilized and blocked in blocking buffer (0.5% Triton X-100 and 5% normal goat serum in PBS) for 1 h at room temperature and overlaid with primary antibodies overnight at 4° C. […] For each biological sample, 3-5 sections of each optic nerve were imaged under 10× or 20×objectives for quantification. Positive cell numbers were then quantified manually using the Plugins/Analyze/Cell Counter function in ImageJ software. For fluorescent intensity analysis, the images were first converted to 8-bit depth in ImageJ software and then, the mean intensity value was calculated by the build-in function: Analyze/Measure.

[6] = system: OPCs in injured optic nerves; assay: OPC proliferation by BrdU/GFP/Olig2 labeling in PDGFRα-H2B-GFP mice; assay type: in vivo, mouse; conditions: PLX3397 from 7 days before crush, examined 14 days after injury
Experimental: FIG. 3I is a schematic of experiments to assess OPC proliferation with the treatment of PLX3397 (PLX) or its vehicle control (Vec) in PDGFRα-H2B-GFP mice. […]
as §1
For PDGFRα-CreER mice, Tamoxifen (100 mg/kg, p.o.) was administered for 5 days right before optic nerve crush. For OPC proliferation assays, BrdU (100 mg/kg, i.p.) was injected at 3 hours before sample collection. For drug screening assays, BrdU was injected daily from day 4 to day 10 post optic nerve crush. Each compound or the corresponding Vehicle was administered once daily for 4 weeks started from day 1 post optic nerve crush (Table 2). […]
as §2

[7] = PDGFRα-CreER/iRTM mice, Montelukast treatment for 4 weeks
[8] = PDGFRα-CreER:iRTM mice, delayed treatment from 2 to 4 weeks after injury

O=C(Nc1cccc2c(=O)cc(-c3nn[nH]n3)oc12)c1ccc(OCCCCc2ccccc2)cc1 [Pranlukast]
number of BrdU+ and CC1+ double positive cells (OPC differentiation) in injured optic nerves [1]: increased OPC differentiation but did not reach statistical significance

CN1CCC[C@@H]1CCO[C@](C)(c1ccccc1)c1ccc(Cl)cc1.O=C(O)/C=C/C(=O)O [clemastine, Clemastine fumarate]
number of BrdU+ and CC1+ double positive cells (OPC differentiation) in injured optic nerves [1]: increased CC1^+ cells, albeit the increase did not reach statistical differences

CN1C2CCC1CC(OC(c1ccccc1)c1ccccc1)C2 (stereo not shown) [benztropine mesylate, Benztropine mesylate]
number of BrdU+ and CC1+ double positive cells (OPC differentiation) in injured optic nerves [1]: significantly increased | number of BrdU+ and CC1+ double positive cells (OPC differentiation) in injured optic nerves ([1]; listed as benztropine): significantly increased OPC differentiation

CC(C)(O)c1ccccc1CC[C@@H](SCC1(CC(=O)O)CC1)c1cccc(/C=C/c2ccc3ccc(Cl)cc3n2)c1 [Montelukast]
proportion of CC1+RTM+ cells with nuclear, but not cytoplasmic, Oligo1 immunoreactivity [2, 7]: 77% | total RTM+ cell numbers [2, 7]: increased | proportion of RFP+ (RTM+) cells that became CC1+ ([2]; PDGFRα-CreER/iRTM mice, Montelukast treatment for 4 weeks after optic nerve injury, 12% in vehicle-treated mice): 64% | pro-differentiation effect compared with the other screened compounds [1]: strongest effect | pro-differentiation effect compared with the other screened compounds ([1]; listed as montelukast): strongest | number of BrdU+ and CC1+ double positive cells (OPC differentiation) in injured optic nerves [1]: significantly increased | thickness of myelin structures [3]: much thinner than those after PLX treatment | regenerated axons that became myelinated [3]: about 20%

O=C1CCC(N2C(=O)c3ccccc3C2=O)C(=O)N1 (stereo not shown) [Thalidomide]
differentiation of OPCs in lineage reporter mice ([4]; PDGFRα-CreER/iRTM lineage reporter mice, 2 to 4 weeks post-injury): OPCs differentiated into mature myelinating oligodendrocytes | BrdU+/CC1+/Olig2+ cells distal to the injury ([4]; administered from 2 weeks to 4 weeks post-injury): robust increase

O=C(O)CCC(=O)O.O=C(O[C@H]1CN2CCC1CC2)N1CCc2ccccc2[C@@H]1c1ccccc1 [Solifenacin, Solifenacin succinate]
number of BrdU+ and CC1+ double positive cells (OPC differentiation) in injured optic nerves [1]: significantly increased | number of BrdU+ and CC1+ double positive cells (OPC differentiation) in injured optic nerves ([1]; listed as solifenacin): significantly increased OPC differentiation

FC(F)(F)c1ccc(CNc2ccc(Cc3c[nH]c4ncc(Cl)cc34)cn2)cn1 [PLX3397, Pexidartinib]
CC1+ cells [2, 8]: increased | proportion of CC1+RTM+ cells expressing cytoplasmic Oligo1 [2, 8]: 78% | depletion of microglia in vivo (CD68) [5]: depleted; also recorded: specifically deplete microglia | total numbers of OPCs [6]: profoundly reduced | regenerated axons that became myelinated [3]: about 20%

C=C(c1ccc(C(=O)O)cc1)c1cc2c(cc1C)C(C)(C)CCC2(C)C [Bexarotene]
number of BrdU+ and CC1+ double positive cells (OPC differentiation) in injured optic nerves [1]: increased CC1^+ cells, albeit the increase did not reach statistical differences
